According to patent US10363251B2, “(+)-morphinans as antagonists of toll-like receptor 9 and therapeutic uses thereof” (Mallinckrodt LLC, priority 2009, dated 2019):

Tests used:
Format in all cases: cell-based
[1] = target: T1, TLR4 (Homo sapiens, UniProt O00206); assay: TLR4 antagonist screening, NF-κB-inducible SEAP reporter in HEK293 cells; details: for Average % Inhibition at TLR4: 10 μM, stimulated with LPS at 100 ng/ml
T1 construct: expressed in transfected cells; host or cells: HEK293
Description: (§1) Stimulation of TLRs 2, 3, 4, 5, 7, 8, and 9 was determined by assessing activation of the transcription factor NF-κB in HEK293 cells that were engineered to express the corresponding receptors. Assessment of TLR stimulation was based on the use of an NF-κB-inducible secreted alkaline phosphatase (SEAP) reporter system in which the SEAP reporter was under the control of a promoter inducible by NF-κB. Thus, the degree of activation of TLRs can be indirectly quantified spectrophotometrically by measuring the amount of the SEAP reporter that is produced.
(§2) The appropriate TLR-expressing cells were plated in Growth Medium in a 96-well plate (25,000-50,000 cells/well). The cells were stimulated with the appropriate positive control ligand or no ligand was added (negative control). The positive control ligands were: HKLM was used to stimulate TLR2; poly(I:C) was used to stimulate TLR3; LPS was used to stimulate TLR4; Flagellin was used to stimulate TLR5; CL097 was used to stimulate TLR7; CL075 was used to stimulate TLR8; CpG oligodeoxynucleotide (ODN) 2006 was used to stimulate TLR9. To test whether (+)-morphinans could block that activation of the TLR, the cells were pretreated with an antagonist for 30 minutes prior to addition of the positive control ligand. For this, 20 μL of the stock test compound solution (100 μM in H2O) was added to give a total volume of 200 μL. […] After a 16-20 hr incubation period at 37° C. in a CO2 incubator, 20 μL of the cell culture supernatant was added to 180 μL of QUANTI-Blue™ Media (InvivoGen, San Diego, Calif.), and the resulting solutions were incubated at 37° C. for an additional 1-3 hours according to the manufacturer's instructions. The OD's of the samples were then read at 650 nm on a Beckman Coulter AD 340C Absorbance Detector.

[2] = target: T2, TLR9 (Homo sapiens, UniProt Q9NR96); assay: TLR9 antagonist screening, NF-κB-inducible SEAP reporter in HEK293 cells; details: for Average % Inhibition at TLR9: 10 μM, stimulated with CpG ODN 2006 at 100 ng/ml
T2 construct: expressed in transfected cells; host or cells: HEK293
T2 sequence (Q9NR96 26-1032): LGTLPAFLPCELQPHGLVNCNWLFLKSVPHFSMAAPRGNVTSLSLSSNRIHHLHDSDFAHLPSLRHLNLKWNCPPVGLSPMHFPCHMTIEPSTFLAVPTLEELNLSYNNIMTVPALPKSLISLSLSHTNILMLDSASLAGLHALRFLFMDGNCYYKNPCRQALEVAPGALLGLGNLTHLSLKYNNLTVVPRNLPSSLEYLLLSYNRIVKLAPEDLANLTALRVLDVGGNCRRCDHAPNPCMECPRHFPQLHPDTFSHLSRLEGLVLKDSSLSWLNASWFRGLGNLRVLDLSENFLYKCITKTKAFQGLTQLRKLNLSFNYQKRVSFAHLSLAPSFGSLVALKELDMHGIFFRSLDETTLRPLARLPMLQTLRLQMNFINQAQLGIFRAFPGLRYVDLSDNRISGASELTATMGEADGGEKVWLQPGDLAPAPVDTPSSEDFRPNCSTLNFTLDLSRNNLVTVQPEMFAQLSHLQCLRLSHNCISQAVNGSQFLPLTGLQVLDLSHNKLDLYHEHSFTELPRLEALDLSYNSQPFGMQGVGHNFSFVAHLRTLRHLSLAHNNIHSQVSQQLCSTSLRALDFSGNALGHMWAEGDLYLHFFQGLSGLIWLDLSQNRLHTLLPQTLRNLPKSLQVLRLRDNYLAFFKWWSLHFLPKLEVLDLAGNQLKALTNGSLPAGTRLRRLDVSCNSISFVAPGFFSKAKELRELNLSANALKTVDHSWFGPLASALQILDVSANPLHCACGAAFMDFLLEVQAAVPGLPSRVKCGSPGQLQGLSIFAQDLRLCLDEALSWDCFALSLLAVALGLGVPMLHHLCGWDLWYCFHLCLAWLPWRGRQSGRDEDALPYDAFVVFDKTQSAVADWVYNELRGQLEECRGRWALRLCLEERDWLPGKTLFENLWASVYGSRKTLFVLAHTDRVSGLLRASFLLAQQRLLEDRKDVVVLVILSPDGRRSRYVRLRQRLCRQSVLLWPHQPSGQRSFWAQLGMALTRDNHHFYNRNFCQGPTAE
Description: as §1, §2

[3] = target: T3, TLR5 (Homo sapiens, UniProt O60602); assay: TLR5 antagonist screening, NF-κB-inducible SEAP reporter in HEK293 cells; details: for Average % Inhibition at TLR5: 10 μM, stimulated with Flagellin at 100 ng/ml
T3 construct: expressed in transfected cells; host or cells: HEK293
Description: as §1, §2

T3 sequence (O60602 21-858, species assumed): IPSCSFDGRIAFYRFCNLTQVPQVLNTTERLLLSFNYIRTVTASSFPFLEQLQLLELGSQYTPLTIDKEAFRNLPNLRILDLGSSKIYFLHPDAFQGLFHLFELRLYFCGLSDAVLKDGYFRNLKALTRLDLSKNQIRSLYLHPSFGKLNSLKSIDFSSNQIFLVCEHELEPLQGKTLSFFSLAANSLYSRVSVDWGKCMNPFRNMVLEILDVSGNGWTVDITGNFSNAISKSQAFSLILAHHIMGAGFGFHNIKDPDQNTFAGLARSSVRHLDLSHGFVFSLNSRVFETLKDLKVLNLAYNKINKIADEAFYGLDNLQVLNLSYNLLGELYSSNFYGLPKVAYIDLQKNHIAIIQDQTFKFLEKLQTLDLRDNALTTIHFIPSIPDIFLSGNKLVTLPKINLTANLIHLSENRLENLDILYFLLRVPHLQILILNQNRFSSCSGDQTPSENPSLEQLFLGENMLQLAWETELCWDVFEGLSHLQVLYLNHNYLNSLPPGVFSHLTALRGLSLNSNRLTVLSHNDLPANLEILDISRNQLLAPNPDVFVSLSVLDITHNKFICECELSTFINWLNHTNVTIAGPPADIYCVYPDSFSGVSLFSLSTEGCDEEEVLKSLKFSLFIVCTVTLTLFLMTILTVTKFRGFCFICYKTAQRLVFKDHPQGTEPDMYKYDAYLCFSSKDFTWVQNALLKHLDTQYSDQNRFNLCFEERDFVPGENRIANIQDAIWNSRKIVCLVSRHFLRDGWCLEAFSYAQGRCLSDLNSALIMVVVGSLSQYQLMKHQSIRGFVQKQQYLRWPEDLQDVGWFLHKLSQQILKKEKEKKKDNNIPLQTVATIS
T1 sequence (O00206 24-839, species assumed): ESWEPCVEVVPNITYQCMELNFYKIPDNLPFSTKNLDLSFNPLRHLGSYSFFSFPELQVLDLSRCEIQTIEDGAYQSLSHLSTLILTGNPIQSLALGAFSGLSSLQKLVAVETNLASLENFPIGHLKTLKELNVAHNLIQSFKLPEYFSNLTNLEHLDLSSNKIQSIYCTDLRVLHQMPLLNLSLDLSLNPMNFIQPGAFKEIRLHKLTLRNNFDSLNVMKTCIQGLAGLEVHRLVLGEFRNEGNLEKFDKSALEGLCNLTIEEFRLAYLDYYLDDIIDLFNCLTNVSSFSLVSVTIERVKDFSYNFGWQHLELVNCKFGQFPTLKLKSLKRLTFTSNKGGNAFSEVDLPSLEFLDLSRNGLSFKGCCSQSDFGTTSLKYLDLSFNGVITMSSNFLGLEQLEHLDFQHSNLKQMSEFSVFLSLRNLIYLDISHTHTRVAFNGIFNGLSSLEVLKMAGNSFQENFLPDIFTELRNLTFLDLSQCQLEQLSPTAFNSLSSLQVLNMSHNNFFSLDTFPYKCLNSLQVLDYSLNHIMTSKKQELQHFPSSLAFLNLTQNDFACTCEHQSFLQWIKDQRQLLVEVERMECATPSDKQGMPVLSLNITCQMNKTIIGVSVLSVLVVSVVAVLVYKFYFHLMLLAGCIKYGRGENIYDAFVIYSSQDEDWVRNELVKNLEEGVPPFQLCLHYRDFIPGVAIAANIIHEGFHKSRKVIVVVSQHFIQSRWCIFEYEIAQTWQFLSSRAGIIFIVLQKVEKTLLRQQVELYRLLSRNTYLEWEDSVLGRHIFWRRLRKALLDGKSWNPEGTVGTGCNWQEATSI
T1 sequence (Q9Y6Y9 17-160 partner limits assumed, species assumed): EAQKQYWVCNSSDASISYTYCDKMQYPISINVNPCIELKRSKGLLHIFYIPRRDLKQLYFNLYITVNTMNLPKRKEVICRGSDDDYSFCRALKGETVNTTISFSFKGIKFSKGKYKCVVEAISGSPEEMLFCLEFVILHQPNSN

| Compound | Average % Inhibition at TLR4 [1] | Average % Inhibition at TLR9 [2] | Average % Inhibition at TLR5 [3] | inhibition at 10 µM ([1]; HEK293, stimulated with LPS at 100 ng/ml) | inhibition at 10 µM ([2]; HEK293, stimulated with CpG ODN 2006 at 100 ng/ml) | inhibition at 10 µM ([3]; HEK293, stimulated with Flagellin at 100 ng/ml) |
| --- | --- | --- | --- | --- | --- | --- |
| COc1ccc2c(c1O)[C@@]13CCN(C)[C@@H](C2)[C@H]1CC(OC)C(=O)C3 (stereo partly drawn) [Dihydrosinomenine, dihydrosinomenine] | 23% | 42% | 16% | – | – | – |
| COC1=C[C@@H]2[C@@H]3Cc4ccc(OC)c(O)c4[C@]2(CCN3C)CC1=O [Sinomenine, sinomenine] | – | – | – | 24% | 55% | 19% |
| C=CCN1CC[C@]23c4c5ccc(O)c4O[C@H]2C(=O)CC[C@]3(O)[C@H]1C5 [(+)-Naloxone, (+)-naloxone] | 25% | 45% | 17% | – | – | – |
